Measurements published in ChEMBL document CHEMBL1129561 (J Med Chem, 1996).

Key:
Progesterone receptor [1] = molecular target: T1, Progesterone receptor (Homo sapiens, UniProt P06401)
T1 sequence (P06401 whole entry): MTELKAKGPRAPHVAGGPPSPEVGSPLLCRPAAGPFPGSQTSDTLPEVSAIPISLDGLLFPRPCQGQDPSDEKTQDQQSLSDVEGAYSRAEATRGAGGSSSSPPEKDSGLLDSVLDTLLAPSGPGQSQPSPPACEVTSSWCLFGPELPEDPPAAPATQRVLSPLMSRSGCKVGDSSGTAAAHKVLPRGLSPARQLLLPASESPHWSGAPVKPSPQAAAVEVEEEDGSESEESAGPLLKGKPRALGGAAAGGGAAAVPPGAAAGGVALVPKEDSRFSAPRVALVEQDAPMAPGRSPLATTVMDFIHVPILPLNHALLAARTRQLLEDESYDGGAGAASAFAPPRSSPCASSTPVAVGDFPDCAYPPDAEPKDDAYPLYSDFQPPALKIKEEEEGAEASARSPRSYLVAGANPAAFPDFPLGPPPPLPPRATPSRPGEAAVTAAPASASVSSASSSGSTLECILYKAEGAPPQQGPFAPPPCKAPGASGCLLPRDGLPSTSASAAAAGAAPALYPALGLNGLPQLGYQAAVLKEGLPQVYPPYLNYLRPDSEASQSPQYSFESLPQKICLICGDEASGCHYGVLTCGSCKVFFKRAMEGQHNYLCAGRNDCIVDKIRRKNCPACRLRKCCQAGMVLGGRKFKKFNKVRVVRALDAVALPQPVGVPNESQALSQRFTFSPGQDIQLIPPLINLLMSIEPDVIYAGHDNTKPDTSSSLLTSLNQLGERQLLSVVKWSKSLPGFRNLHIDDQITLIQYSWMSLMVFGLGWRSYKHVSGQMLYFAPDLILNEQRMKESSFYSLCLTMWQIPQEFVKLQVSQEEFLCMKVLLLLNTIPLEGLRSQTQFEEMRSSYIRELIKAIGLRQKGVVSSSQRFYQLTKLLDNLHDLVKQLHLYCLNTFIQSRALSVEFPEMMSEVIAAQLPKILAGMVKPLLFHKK

Androgen receptor [2] = molecular target: T2, Androgen receptor (Homo sapiens, UniProt P10275)
T2 sequence (P10275 whole entry): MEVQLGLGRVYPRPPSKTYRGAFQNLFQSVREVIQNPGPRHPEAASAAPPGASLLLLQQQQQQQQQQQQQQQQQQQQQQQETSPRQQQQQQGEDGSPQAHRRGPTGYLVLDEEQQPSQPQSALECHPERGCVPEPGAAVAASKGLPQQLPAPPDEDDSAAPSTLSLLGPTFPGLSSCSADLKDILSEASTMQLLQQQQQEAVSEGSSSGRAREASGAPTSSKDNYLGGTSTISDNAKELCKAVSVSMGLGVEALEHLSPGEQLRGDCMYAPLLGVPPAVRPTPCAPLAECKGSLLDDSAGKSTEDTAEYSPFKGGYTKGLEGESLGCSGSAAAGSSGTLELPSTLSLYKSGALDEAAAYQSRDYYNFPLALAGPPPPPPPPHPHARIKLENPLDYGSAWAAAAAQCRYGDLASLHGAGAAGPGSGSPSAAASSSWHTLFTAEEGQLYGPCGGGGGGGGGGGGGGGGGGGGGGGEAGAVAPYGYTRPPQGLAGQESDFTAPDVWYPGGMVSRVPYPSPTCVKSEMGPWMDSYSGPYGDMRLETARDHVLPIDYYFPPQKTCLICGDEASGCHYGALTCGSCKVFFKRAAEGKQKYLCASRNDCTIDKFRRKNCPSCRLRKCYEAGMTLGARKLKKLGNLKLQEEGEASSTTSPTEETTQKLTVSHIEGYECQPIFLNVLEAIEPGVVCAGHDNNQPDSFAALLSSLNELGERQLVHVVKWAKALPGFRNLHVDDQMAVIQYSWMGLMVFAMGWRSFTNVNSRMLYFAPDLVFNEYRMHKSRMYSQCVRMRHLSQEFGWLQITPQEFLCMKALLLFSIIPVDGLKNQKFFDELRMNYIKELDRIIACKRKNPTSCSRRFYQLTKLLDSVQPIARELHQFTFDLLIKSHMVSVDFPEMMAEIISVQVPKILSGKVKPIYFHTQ
Description: Binding affinity determined against human Androgen receptor

Glucocorticoid receptor [3] = molecular target: T3, Glucocorticoid receptor (Homo sapiens, UniProt P04150)
T3 sequence (P04150 whole entry): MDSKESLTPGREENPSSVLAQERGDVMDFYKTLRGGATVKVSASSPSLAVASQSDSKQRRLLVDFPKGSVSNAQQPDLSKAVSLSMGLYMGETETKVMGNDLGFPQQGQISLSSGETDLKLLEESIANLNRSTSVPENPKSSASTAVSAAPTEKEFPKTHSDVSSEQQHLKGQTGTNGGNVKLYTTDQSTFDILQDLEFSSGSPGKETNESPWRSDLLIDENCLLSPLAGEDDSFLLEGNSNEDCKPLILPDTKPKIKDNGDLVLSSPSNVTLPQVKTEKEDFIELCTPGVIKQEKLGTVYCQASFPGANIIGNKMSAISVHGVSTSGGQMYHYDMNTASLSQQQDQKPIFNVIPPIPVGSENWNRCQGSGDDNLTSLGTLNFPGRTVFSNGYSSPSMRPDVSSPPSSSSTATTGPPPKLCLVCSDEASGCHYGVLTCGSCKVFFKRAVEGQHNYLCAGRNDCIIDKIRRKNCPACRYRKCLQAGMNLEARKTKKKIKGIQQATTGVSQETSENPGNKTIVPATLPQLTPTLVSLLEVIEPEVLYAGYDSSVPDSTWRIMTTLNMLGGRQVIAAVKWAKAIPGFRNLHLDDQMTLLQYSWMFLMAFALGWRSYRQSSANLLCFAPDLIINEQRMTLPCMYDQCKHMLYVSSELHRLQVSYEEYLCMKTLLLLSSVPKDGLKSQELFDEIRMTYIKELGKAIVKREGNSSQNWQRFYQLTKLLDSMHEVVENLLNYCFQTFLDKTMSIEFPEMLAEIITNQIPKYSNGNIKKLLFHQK
Description: Binding affinity was determined for human glucocorticoid receptor(hGR).

Progesterone receptor [4] = molecular target: T1, Progesterone receptor; remark: listed apart in the source
Progesterone receptor [5] = molecular target: T1, Progesterone receptor; remark: listed apart in the source
[6] = molecular target: T4, Progesterone receptor (Homo sapiens) (UniProt P06401); conditions: CV-1
T4 sequence (whole entry): T1 sequence (P06401 whole entry)

Progesterone receptor [7] = molecular target: T1, Progesterone receptor; remark: listed apart in the source
[8] = molecular target: T4, Progesterone receptor (Homo sapiens); conditions: CV-1; remark: listed apart in the source
Glucocorticoid receptor [9] = molecular target: T3, Glucocorticoid receptor; test: Inhibitory activity against human glucocorticoid receptor (hGR)
Androgen receptor [10] = molecular target: T2, Androgen receptor; remark: listed apart in the source
Description: Inhibitory activity against human Androgen receptor

Progesterone receptor [11] = molecular target: T1, Progesterone receptor; remark: listed apart in the source
Estrogen receptor = Estrogen receptor (Homo sapiens, UniProt Q92731+P03372)
Description: Inhibitory activity against human estrogen receptor

Row | Compound | IC50 (Progesterone receptor [1]) [nM] | Ki (Androgen receptor [2]) | Ki (Glucocorticoid receptor [3]) | IC50 (Progesterone receptor [4]) [nM] | Ki (Progesterone receptor [5]) | Max inhibition [6] [%] | EC50 (Progesterone receptor [7]) [nM] | Max inhibition [8] [%] | IC50 (Glucocorticoid receptor [9]) [nM] | IC50 (Androgen receptor [10]) [nM] | EC50 (Progesterone receptor [11]) [nM] | IC50 (Estrogen receptor) [nM]
1 | C=C1C[C@H](C)C[C@@H](C)[C@@H]1Cc1cc(OC)c(Br)cc1O | 350 | 1140 nM | 1660 nM | 985 | 84 nM | 63 | – | – | – | – | – | –
2 | C=C1CCC[C@H](C)[C@H]1Cc1cc(OC)c(Br)cc1O | 300 | 1640 nM | 3700 nM | 1050 | 71 nM | 93 | – | – | – | – | – | –
3 | C=C1CCC[C@@H](C)[C@@H]1Cc1cc(OC)c(Br)cc1O | 200 | 570 nM | 2290 nM | 320 | 69 nM | 62 | 3010 | – | – | – | – | –
4 | C=C1CCCC(C)(C)C1Cc1cc(OC)c(Br)cc1O (configuration not stated) | 163 | – | 2210 nM | 405 | 77 nM | 55 | 4020 | – | – | – | – | –
5 | C=C1[C@H](O)CCC(C)(C)[C@@H]1Cc1cc(OC)c(Br)cc1O | 1700 | 10000 nM (not active) | > 10000 nM | 3400 | 10000 nM (not active) | 73 | – | – | – | – | – | –
6 | C=C1C[C@H](CO)CC(C)(C)[C@@H]1Cc1cc(OC)c(Br)cc1O | 2000 | 6810 nM | 6390 nM | 3300 | 3250 nM | 87 | – | 87 | – | – | – | –
7 | C=C1CCCC(C)(C)[C@@H]1Cc1cc(OC)c(Br)cc1O | 290 | – | 1780 nM | 597 | 34 nM | 45 | 3260 | – | – | – | – | –
8 | C=C1[C@@H](Cc2cc(OC)c(Br)cc2O)C(C)(C)CC[C@@]1(C)O | 430 | 6660 nM | > 10000 nM | 2000 | 275 nM | 78 | – | – | – | – | – | –
9 | COc1cc(CC2C(C)(C)CC(C)=CC23CC3)c(OC(C)=O)cc1Br (configuration not stated) | 440 | 3010 nM | 2570 nM | 160 | 98 nM | 26 | 2120 | – | – | – | – | –
10 | C=C1CC[C@@H](Br)C(C)(C)[C@@H]1Cc1cc(OC)c(Br)cc1O | 3500 | – | 2470 nM | – | 343 nM | < 20 | – | – | > 10000 | 238 | 35 | > 10000
11 | C=C1C=C(C)C[C@@H](C)[C@@H]1Cc1cc(OC)c(Br)cc1OC(C)=O | 147 | 1500 nM | 2380 nM | 350 | 21 nM | 52 | 3010 | – | – | – | – | –

Second part, led by results:

Row | IC50 (Progesterone receptor [1]) [nM] | Ki (Androgen receptor [2]) | Ki (Glucocorticoid receptor [3]) | IC50 (Progesterone receptor [4]) [nM] | Ki (Progesterone receptor [5]) | Max inhibition [6] [%] | EC50 (Progesterone receptor [7]) [nM] | Max inhibition [8] [%] | Compound | IC50 (Glucocorticoid receptor [9]) [nM] | IC50 (Androgen receptor [10]) [nM] | EC50 (Progesterone receptor [11]) [nM] | IC50 (Estrogen receptor) [nM]
12 | 250 | 1920 nM | 4530 nM | 1200 | 441 nM | 98 | – | – | C=C1CCC(C)(C)C1Cc1cc(OC)c(Br)cc1O (configuration not stated) | – | – | – | –
13 | – | 1590 nM | 2670 nM | – | – | 66 | – | – | C=C1C=C(C)C(Cc2cc(OC)c(Br)cc2O)C(C)(C)C1 (configuration not stated) | – | – | – | –
14 | 280 | 1520 nM | 2780 nM | 783 | 156 nM | 71 | – | – | C=C1C=CCC(C)(C)C1Cc1cc(OC)c(Br)cc1O (configuration not stated) | – | – | – | –
15 | – | > 10000 nM | 8220 nM | – | – | 44 | – | – | C=C1C=C(C)CC(C)(C)C1Sc1ccc([N+](=O)[O-])cc1 (configuration not stated) | – | – | – | –
16 | – | 1450 nM | 1260 nM | – | – | 37 | – | – | C=C1C=C(C)CC(C)(C)C1Cc1cc(OC)c(Br)cc1O (configuration not stated) | – | – | – | –
17 | 510 | 2700 nM | 6810 nM | 1800 | 28.8 nM | 85 | – | – | C=C1C=C(C)CC(C)(C)C1Cc1ccc([N+](=O)[O-])c(C)c1 (configuration not stated) | – | – | – | –
18 | – | 6450 nM | 8510 nM | – | – | 87 | – | – | C=C1C=C(C)CC(C)(C)C1(O)Cc1ccc([N+](=O)[O-])cc1 (configuration not stated) | – | – | – | –
19 | 775 | > 10000 nM | 8360 nM | 1950 | 88 nM | 72 | – | – | C=C1C=C(C)CC(C)(C)C1Cc1ccc2nonc2c1 (configuration not stated) | – | – | – | –
20 | – | 10000 nM (not active) | 10000 nM (not active) | 2440 | > 10000 nM | 93 | – | – | CCOC1=CC(=O)C(Cc2ccc([N+](=O)[O-])cc2)C(C)(C)C1 (configuration not stated) | – | – | – | –
21 | 210 | 6390 nM | 4110 nM | 660 | 455 nM | 83 | – | – | C=C1C(C)=CCC(C)(C)[C@@H]1Cc1cc(OC)c(Br)cc1OC(C)=O | – | – | – | –
22 | 770 | 1940 nM | 2200 nM | 710 | 59.6 nM | 42 | 1460 | – | C=C1C=C(C)CC(C)(C)C1Cc1cc(OC)c(Br)cc1OC(C)=O (configuration not stated) | – | – | – | –
23 | > 10000 | 696 nM | 1040 nM | – | 22 nM | < 20 | – | – | C=C1C[C@H](C)CC(C)(C)[C@@H]1Cc1cc(OC)c(Br)cc1O | – | – | 458 | –
